# From patent US8563715B2, “Pyrimidine derivative having cell protecting effect and uses thereof” (Zenyaku Kogyo Kabushikikaisha, priority 2008, dated 2013)
row,Compound,melting point [°C]
1,"O=CN1CCN(c2cc(N3CCOCC3)nc(N3CCN(c4ccccc4)CC3)n2)CC1 [Compound 53, 4-(4-formylpiperazin-1-yl)-6-morpholino-2-(4-phenylpiperazin-1-yl)pyrimidine]",171 to 172
2,"CC(=O)N1CCN(c2cc(N3CCOCC3)nc(N3CCN(c4ccccc4)CC3)n2)CC1 [Compound 54, 4-(4-acetylpiperazin-1-yl)-6-morpholino-2-(4-phenylpiperazin-1-yl)pyrimidine]",171 to 172
3,"CCCCN(CCCC)c1cc(N2CCOCC2)nc(N2CCN(c3ccccc3)CC2)n1 [Compound 55, 6-dibutylamino-4-morpholino-2-(4-phenylpiperazin-1-yl)pyrimidine]",84 to 85
4,"Fc1ccccc1N1CCN(c2cc(N3CCOCC3)nc(N3CCN(c4ccccc4)CC3)n2)CC1 [Compound 58, 4-[4-(2-fluorophenyl)piperazin-1-yl]-6-morpholino-2-(4-phenylpiperazin-1-yl)pyrimidine]",90 to 91
5,"Fc1ccccc1N1CCN(c2cc(N3CCOCC3)nc(N3CCN(c4ccccc4F)CC3)n2)CC1 [Compound 59, 2,4-bis[4-(2-fluorophenyl)piperazin-1-yl]-6-morpholinopyrimidine]",98 to 99
6,"Cc1ccccc1N1CCN(c2cc(N3CCOCC3)nc(N3CCN(c4ccccc4F)CC3)n2)CC1 [Compound 60, 2-[4-(2-fluorophenyl)piperazin-1-yl]-4-[4-(2-methylphenyl)piperazin-1-yl]-6-morpholinopyrimidine]",98 to 99
7,"Cc1ccccc1N1CCN(c2cc(N3CCOCC3)nc(N3CCN(c4ccccc4C)CC3)n2)CC1 [Compound 62, 2,4-bis[4-(2-methylphenyl)piperazin-1-yl]-6-morpholinopyrimidine]",98 to 99
8,"CC(=O)Nc1c(N2CCOCC2)nc(N2CCN(c3ccccc3)CC2)nc1N1CCOCC1 [Compound 77, 5-acetylamino-4,6-dimorpholino-2-(4-phenylpiperazin-1-yl)pyrimidine]",229 to 230
9,"COc1ccc(/C=C/c2nc(N3CCOCC3)c(NC(C)=O)c(N3CCOCC3)n2)cc1 [Compound 79, 5-acetylamino-2-[2-(4-methoxyphenyl)vinyl]-4,6-dimorpholinopyrimidine]",189 to 191
10,"CCNc1c(N2CCOCC2)nc(N2CCN(c3ccccc3)CC2)nc1N1CCOCC1 [Compound 80, 5-ethylamino-4,6-dimorpholino-2-(4-phenylpiperazin-1-yl)pyrimidine]",100 to 104
11,"Fc1c(N2CCOCC2)nc(N2CCOCC2)nc1N1CCN(Cc2ccccc2)CC1 [Compound 90, 4-(4-benzylpiperazin-1-yl)-5-fluoro-2,6-dimorpholinopyrimidine]",108 to 111
12,"Fc1c(N2CCOCC2)nc(N2CCN(c3ncccn3)CC2)nc1N1CCOCC1 [Compound 92, 5-fluoro-4,6-dimorpholino-2-[4-(pyrimidin-2-yl)piperazin-1-yl]pyrimidine]",163 to 165
13,"Fc1c(N2CCOCC2)nc(N2CCNC(c3ccccc3)C2)nc1N1CCOCC1 (stereo not drawn) [Compound 93, 5-fluoro-4,6-dimorpholino-2-(3-phenylpiperazin-1-yl)pyrimidine]",170 to 175
14,"Fc1ccc(N2CCN(c3nc(N4CCOCC4)c(F)c(N4CCOCC4)n3)CC2)cc1 [Compound 96, 5-fluoro-2-[4-(4-fluorophenyl)piperazin-1-yl]-4,6-dimorpholinopyrimidine]",195 to 198
15,"Fc1ccc(N2CCN(c3nc(N4CCOCC4)nc(N4CCOCC4)c3F)CC2)cc1 [Compound 97, 5-fluoro-4-[4-(4-fluorophenyl)piperazin-1-yl]-2,6-dimorpholinopyrimidine]",171 to 174
16,"Cc1ccc(N2CCN(c3nc(N4CCOCC4)c(F)c(N4CCOCC4)n3)CC2)cc1 [Compound 98, 5-fluoro-2-[4-(4-methylphenyl)piperazin-1-yl]-4,6-dimorpholinopyrimidine]",201 to 203
17,"CC(=O)c1ccc(N2CCN(c3nc(N4CCOCC4)c(F)c(N4CCOCC4)n3)CC2)cc1 [Compound 100, 2-[4-(4-acetylphenyl)piperazin-1-yl]-5-fluoro-4,6-dimorpholinopyrimidine]",195 to 198
18,"Fc1c(N2CCOCC2)nc(N2CCN(c3ccccc3Cl)CC2)nc1N1CCOCC1 [Compound 102, 2-[4-(2-chlorophenyl)piperazin-1-yl]-5-fluoro-4,6-dimorpholinopyrimidine]",118
19,"CCOc1ccccc1N1CCN(c2nc(N3CCOCC3)c(F)c(N3CCOCC3)n2)CC1 [Compound 103, 2-[4-(2-ethoxyphenyl)piperazin-1-yl]-5-fluoro-4,6-dimorpholinopyrimidine]",145
20,"Cc1ccccc1N1CCN(c2nc(N3CCOCC3)c(F)c(N3CCOCC3)n2)CC1 [Compound 104, 5-fluoro-2-[4-(2-methylphenyl)piperazin-1-yl]-4,6-dimorpholinopyrimidine]",72
21,"Fc1ccccc1N1CCN(c2nc(N3CCOCC3)c(F)c(N3CCOCC3)n2)CC1 [Compound 106, 5-fluoro-2-[4-(2-fluorophenyl)piperazin-1-yl]-4,6-dimorpholinopyrimidine]",144
22,"Oc1ccc(N2CCN(c3nc(N4CCOCC4)c(F)c(N4CCOCC4)n3)CC2)cc1 [Compound 107, 5-fluoro-2-[4-(4-hydroxyphenyl)piperazin-1-yl]-4,6-dimorpholinopyrimidine]",141
23,"COc1ccccc1N1CCN(c2nc(N3CCOCC3)c(F)c(N3CCOCC3)n2)CC1 [Compound 108, 5-fluoro-2-[4-(2-methoxyphenyl)piperazin-1-yl]-4,6-dimorpholinopyrimidine]",171
24,"Fc1c(N2CCOCC2)nc(N2CCN(c3ccc(Cl)cc3)CC2)nc1N1CCOCC1 [Compound 109, 2-[4-(4-chlorophenyl)piperazin-1-yl]-5-fluoro-4,6-dimorpholinopyrimidine]",215
25,"COc1ccccc1N1CCN(c2nc(N(C)C)nc(N3CCOCC3)c2F)CC1 [Compound 111, 2-dimethylamino-5-fluoro-4-[4-(2-methoxyphenyl)piperazin-1-yl]-6-morpholinopyrimidine]",108
26,"CN(C)c1nc(N2CCOCC2)c(F)c(N2CCN(c3ccccc3F)CC2)n1 [Compound 112, 2-dimethylamino-5-fluoro-4-[4-(2-fluorophenyl)piperazin-1-yl]-6-morpholinopyrimidine]",95

# Results, then the molecule that gave them:
row,melting point [°C],Compound
1,152,"CN(C)c1nc(N2CCOCC2)c(F)c(N2CCN(c3ccc(Cl)cc3)CC2)n1 [Compound 113, 4-[4-(4-chlorophenyl)piperazin-1-yl]-2-dimethylamino-5-fluoro-6-morpholinopyrimidine]"
2,177 to 180,"OC1(c2ccccc2)CCN(c2nc(N3CCOCC3)c(F)c(N3CCOCC3)n2)CC1 [Compound 116, 5-fluoro-2-(4-hydroxy-4-phenylpiperidin-1-yl)-4,6-dimorpholinopyrimidine]"
3,128 to 131,"OC1(c2ccccc2)CCN(c2nc(N3CCOCC3)nc(N3CCOCC3)c2F)CC1 [Compound 117, 5-fluoro-4-(4-hydroxy-4-phenylpiperidin-1-yl)-2,6-dimorpholinopyrimidine]"
4,201 to 205,"CC(=O)C1(c2ccccc2)CCN(c2nc(N3CCOCC3)c(F)c(N3CCOCC3)n2)CC1 [Compound 118, 2-(4-acetyl-4-phenylpiperidin-1-yl)-5-fluoro-4,6-dimorpholinopyrimidine]"
5,132 to 135,"Fc1c(N2CCOCC2)nc(N2CC=C(c3ccccc3)CC2)nc1N1CCOCC1 [Compound 120, 5-fluoro-4,6-dimorpholino-2-[4-phenyl-1,2,5,6-tetrahydropyridin-1-yl]pyrimidine]"
6,125 to 128,"Fc1c(N2CCOCC2)nc(N2CCOCC2)nc1N1CCN(C2CCCCC2)CC1 [Compound 124, 4-(4-cyclohexylpiperazin-1-yl)-5-fluoro-2,6-dimorpholinopyrimidine]"
7,71 to 72,"Cc1ccccc1N1CCN(c2nc(N3CCN(c4ccccc4F)CC3)nc(N3CCOCC3)c2F)CC1 [Compound 127, 5-fluoro-2-[4-(2-fluorophenyl)piperazin-1-yl]-4-[4-(2-methylphenyl)piperazin-1-yl]-6-morpholinopyrimidine]"
8,106 to 107,"Cc1ccccc1N1CCN(c2nc(N3CCOCC3)c(F)c(N3CCN(c4ccccc4C)CC3)n2)CC1 [Compound 129, 2,4-bis[4-(2-methylphenyl)piperazin-1-yl]-5-fluoro-6-morpholinopyrimidine]"
9,131 to 133,"Clc1c(N2CCOCC2)nc(N2CCN(c3ccccc3)CC2)nc1N1CCOCC1 [Compound 130, 5-chloro-4,6-dimorpholino-2-(4-phenylpiperazin-1-yl)pyrimidine]"
10,221 to 223,"Nc1c(N2CCOCC2)nc(/C=C/c2cccs2)nc1N1CCOCC1 [Compound 132, 5-amino-4,6-dimorpholino-2-[2-(2-thienyl)vinyl]pyrimidine]"
11,216 to 220,"Nc1c(N2CCOCC2)nc(/C=C/c2ccncc2)nc1N1CCOCC1 [Compound 134, 5-amino-4,6-dimorpholino-2-[2-(pyridin-4-yl)vinyl]pyrimidine]"
12,193 to 195,"Nc1c(N2CCOCC2)nc(/C=C/c2ccc(F)cc2)nc1N1CCOCC1 [Compound 135, 5-amino-2-[2-(4-fluorophenyl)vinyl]-4,6-dimorpholinopyrimidine]"
13,151 to 154,"Cc1ccccc1/C=C/c1nc(N2CCOCC2)c(N)c(N2CCOCC2)n1 [Compound 137, 5-amino-2-[2-(2-methylphenyl)vinyl]-4,6-dimorpholinopyrimidine]"
14,130 to 133,"COc1ccc(/C=C/c2nc(N(C)C)c(N)c(N3CCOCC3)n2)cc1 [Compound 138, 5-amino-4-dimethylamino-2-[2-(4-methoxyphenyl)vinyl]-6-morpholinopyrimidine]"
15,208 to 210,"CN(C)c1c(N2CCOCC2)nc(N2CCN(c3ccccc3)CC2)nc1N1CCOCC1 [Compound 141, 5-dimethylamino-4,6-dimorpholino-2-(4-phenylpiperazin-1-yl)pyrimidine]"
16,162 to 163,"O=Cc1c(N2CCOCC2)nc(N2CCN(c3ccccc3)CC2)nc1N1CCOCC1 [Compound 142, 5-formyl-4,6-dimorpholino-2-(4-phenylpiperazin-1-yl)pyrimidine]"
